Reference: ChEMBL document CHEMBL5705903, “A DNA Hypomethylation Signature Predicts Antitumor Activity of LSD1 Inhibitors in SCLC” (Cancer Cell, 2015)
Activity calls are given as the source filed them. The rule behind the calls is not given here.

Legend:
[1] = AUC (0 to t) in mouse at 5.5 mg/kg, ip by HPLC/MS/MS analysis; format: ADME, organism-based; details: in vivo
[2] = biological target: T1, Lysine-specific histone demethylase 1A (Homo sapiens, UniProt O60341); test: Binding affinity to LSD1 (unknown origin) using H3K4me2 as substrate assessed as apparent inhibition constant by HRP-coupled amplex red assay; details: read-out: Ki(app)
[3] = Tmax in mouse blood at 5 mg/kg, po by HPLC/MS/MS analysis; format: ADME, organism-based
[4] = Effect on cleaved PARP level in human NCI-H1417 cells assessed as relative expression at 100 nM measured after 7 days by Western blot analysis (reference value: 0.10); format: functional; details: time 7 day
[5] = Effect on cleaved PARP level in human NCI-H1417 cells assessed as relative expression at 10 nM measured after 10 days by Western blot analysis (reference value: 0.19); format: functional; details: time 10 day
[6] = Effect on cleaved PARP level in human NCI-H526 cells assessed as fold change at 100 nM measured after 14 days by Western blot analysis (reference value: 1.00); format: functional; details: time 14 day
[7] = Effect on cleaved PARP level in human NCI-H526 cells assessed as fold change at 1000 nM measured after 14 days by Western blot analysis (reference value: 1.00); format: functional; details: time 14 day
[8] = Effect on cleaved PARP level in human NCI-H524 cells assessed as relative expression at 1000 nM measured after 7 days by Western blot analysis (reference value: 0.63); format: functional; details: time 7 day
[9] = Effect on cleaved PARP level in human COLO-668 cells assessed as relative expression at 1000 nM measured after 10 days by Western blot analysis (reference value: 1.07); format: functional; details: time 10 day
[10] = Effect on cleaved PARP level in human COLO-668 cells assessed as relative expression at 1000 nM measured after 14 days by Western blot analysis (reference value: 3.50); format: functional; details: time 14 day
[11] = Effect on cleaved PARP level in human COLO-668 cells assessed as fold change at 100 nM measured after 14 days by Western blot analysis (reference value: 1.00); format: functional; details: time 14 day
[12] = Effect on cleaved PARP level in human NCI-H1694 cells assessed as relative expression at 10 nM measured after 7 days by Western blot analysis (reference value: 0.25); format: functional; details: time 7 day
[13] = Effect on cleaved PARP level in human NCI-H1694 cells assessed as relative expression at 1000 nM measured after 7 days by Western blot analysis (reference value: 0.25); format: functional; details: time 7 day
[14] = Effect on cleaved PARP level in human NCI-H1694 cells assessed as fold change at 10 nM measured after 10 days by Western blot analysis (reference value: 1.00); format: functional; details: time 10 day
[15] = Effect on cleaved PARP level in human NCI-H69 cells assessed as relative expression at 100 nM measured after 7 days by Western blot analysis (reference value: 0.02); format: functional; details: time 7 day
[16] = Effect on cleaved PARP level in human NCI-H69 cells assessed as relative expression at 1000 nM measured after 14 days by Western blot analysis (reference value: 0.03); format: functional; details: time 14 day
[17] = Effect on cleaved PARP level in human NCI-H69 cells assessed as fold change at 100 nM measured after 7 days by Western blot analysis (reference value: 1.00); format: functional; details: time 7 day
[18] = Effect on cleaved PARP level in human NCI-H69 cells assessed as fold change at 1000 nM measured after 14 days by Western blot analysis (reference value: 1.00); format: functional; details: time 14 day
[19] = Effect on cleaved PARP level in human NCI-H510 cells assessed as relative expression at 10 nM measured after 10 days by Western blot analysis (reference value: 0.02); format: functional, NCI-H510A; details: time 10 day
[20] = Effect on cleaved PARP level in human NCI-H510 cells assessed as relative expression at 100 nM measured after 10 days by Western blot analysis (reference value: 0.02); format: functional, NCI-H510A; details: time 10 day
[21] = Effect on cleaved PARP level in human NCI-H510 cells assessed as fold change at 10 nM measured after 10 days by Western blot analysis (reference value: 1.00); format: functional, NCI-H510A; details: time 10 day
[22] = Effect on cleaved PARP level in human NCI-H889 cells assessed as relative expression at 100 nM measured after 10 days by Western blot analysis (reference value: 0.33); format: functional; details: time 10 day
[23] = Effect on cleaved PARP level in human NCI-H2171 cells assessed as fold change at 10 nM measured after 7 days by Western blot analysis (reference value: 1.00); format: functional; details: time 7 day
[24] = Effect on cleaved PARP level in human NCI-H2171 cells assessed as fold change at 1000 nM measured after 10 days by Western blot analysis (reference value: 1.00); format: functional; details: time 10 day
[25] = Effect on cleaved PARP level in human NCI-H146 cells assessed as relative expression at 100 nM measured after 7 days by Western blot analysis (reference value: […]); format: functional; details: time 7 day
[26] = Effect on cleaved PARP level in human NCI-H146 cells assessed as fold change at 100 nM measured after 14 days by Western blot analysis (reference value: 1.00); format: functional; details: time 14 day
NCI-H1417 [27] = test: Antitumor activity against human NCI-H1417 cells xenografted in nude mouse assessed as tumor growth inhibition at 1.5 mg/kg, po administered daily measured twice weekly relative to control; format: functional; details: read-out: TGI
NCI-H526 [28] = test: Effect on NSE gene expression in human NCI-H526 cells at 1 uM measured after 4 to 7 days by qRT-PCR analysis; format: functional, cell-based; details: time 4-7 day
NCI-H526 [29] = test: Upregulation of LSD1 signal enrichment at typical enhancers in human NCI-H526 cells at 1 uM; format: functional, cell-based
NCI-H526 [30] = test: In vivo inhibition of LSD1 in human NCI-H526 cells xenografted in nude mouse assessed as change in LIX1L gene expression measured after 24 hrs post single administration by qRT-PCR analysis; format: functional, organism-based; details: dose 0.06-135 mg/kg
NCI-H526 [31] = test: In vivo inhibition of LSD1 in human NCI-H526 cells xenografted in nude mouse assessed as change in LIX1L gene expression administrated daily for 5 days by qRT-PCR analysis; format: functional, organism-based; details: dose 0.02-135 mg/kg, time 5.0 day
NCI-H526 [32] = test: In vivo inhibition of LSD1 in human NCI-H526 cells xenografted in nude mouse assessed as change in KIAA1644 gene expression administrated daily for 5 days by qRT-PCR analysis; format: functional, organism-based; details: dose 0.02-135 mg/kg, time 5.0 day
NCI-H1417 [33] = test: In vivo inhibition of LSD1 in human NCI-H1417 cells xenografted in nude mouse assessed as change in SNTB1 gene expression measured after 24 hrs post single administration by qRT-PCR analysis; format: functional, organism-based; details: dose 0.02-135 mg/kg
NCI-H1417 [34] = test: In vivo inhibition of LSD1 in human NCI-H1417 cells xenografted in nude mouse assessed as change in ZEB1 gene expression measured after 24 hrs post single administration by qRT-PCR analysis; format: functional, organism-based; details: dose 0.02-135 mg/kg
[35] = biological target: T1, Lysine-specific histone demethylase 1A; details: NCI-H526, dose 1-10000 nM, time 1-7 day
Description: Inhibition of LSD1 in human NCI-H526 cells assessed as change in IGFBP2 gene expression treated for 1 to 7 days by qRT-PCR analysis

c1ccc([C@@H]2C[C@H]2NC2CCNCC2)cc1
AUC(0-t) [1]: 871 ng·h/mL

O=C(O)c1ccc(CN2CCC(CN[C@@H]3C[C@H]3c3ccccc3)CC2)cc1 [GSK2879552]
Ki [2]: 1700 nM
Tmax [3]: 15 min
Activity [4]: 0.29
Activity [5]: 0.27
fold change (FC) [6]: 1.41
fold change (FC) [7]: 1.37
Activity [8]: 1.12
Activity [9]: 0.63
Activity [10]: 1.02
fold change (FC) [11]: 0.25
Activity [12]: 0.3
Activity [13]: 0.36
fold change (FC) [14]: 0.88
Activity [15]: 0.03
Activity [16]: 0.17
fold change (FC) [17]: 1.32
fold change (FC) [18]: 5.16
Activity [19]: 0.08
Activity [20]: 0.18
fold change (FC) [21]: 4.22
Activity [22]: 0.74
fold change (FC) [23]: 1.53
fold change (FC) [24]: 1.33
Activity [25]: 2.21
fold change (FC) [26]: 0.45
inhibition in vivo at 1.5 mg/kg (NCI-H1417 [27]): 83%
Activity (NCI-H526 [28]): inactive
Activity (NCI-H526 [29]): Active
inhibition (NCI-H526 [30]): Dose-Dependent Effect
inhibition (NCI-H526 [31]): Dose-Dependent Effect
inhibition (NCI-H526 [32]): Dose-Dependent Effect
inhibition (NCI-H1417 [33]): Dose-Dependent Effect
inhibition (NCI-H1417 [34]): Dose-Dependent Effect
inhibition [35]: Dose-Dependent Effect
